Results as given in PubChem BioAssay AID651766 (The Scripps Research Institute Molecular Screening Center, 2012).
“And” between values parts separate entries of the source, which are not always exact repeats. Identical values can stand only once. The source made the active and inactive calls. The rule behind the calls is not given here.

Target: Perilipin-1 (Homo sapiens) + 1-acylglycerol-3-phosphate O-acyltransferase ABHD5 (Homo sapiens) (UniProt O60240+Q8WTS1)
Experiment: inhibition of ABHD5 association with perilipin-1 – biochemical, luminescence, dose response, counter-screen for ABHD5-PLIN5 interaction inhibitor project, late-stage follow-up (AID 651766)
Conditions: ABHD5-PLIN1 interaction

Structure (SMILES) | IC50
COc1cc2c(cc1OC)C(C)N(CCc1ccc(Cl)cc1)CC2 (stereo unspecified) | inactive
CCN(CC)CCN(CC(=O)Nc1c(C)cc(C)cc1C)C(=O)c1ccccc1 | 7.34 µM
CCOC(=O)c1c(NC(=O)/C=C/C(=O)O)sc(C)c1-c1ccc(C(C)(C)C)cc1 | 3.72 µM
COc1ccccc1-c1cc(C(=O)NC2CCN(C)CC2)c2ccc(Cl)c(C)c2n1 | 9.85 µM
COc1ccc(NC(=S)N(CCCN2CCCC2)Cc2cccn2Cc2ccc(Cl)cc2)cc1Cl | inactive
CCN(CC)CCOc1ccc(/C(=C(/Cl)c2ccccc2)c2ccccc2)cc1 | 0.983 µM
CC(=O)Oc1ccc(C23c4ccccc4C2(OC(C)=O)c2cc(OC(C)=O)ccc23)cc1 (stereo unspecified) | > 39.8 µM (inactive)
CC(=O)Nc1ccc(S(=O)(=O)N2c3ccc(F)cc3CCC2C)cc1 (stereo unspecified) | 5.16 µM
Cc1ccc2nc3cc([N+](=O)[O-])cc([N+](=O)[O-])c3cc2c1 | 0.496 µM
CCN(CC)CCC(C)OC(c1ccccc1)c1ccccc1 (stereo unspecified) | 1.44 µM
C=C[C@]1(C)C[C@@H](OC(=O)CSCCN(CC)CC)[C@]2(C)C(C)CC[C@]3(CCC(=O)[C@H]32)[C@@H](C)[C@@H]1O (stereo partly specified) | inactive
CCOC(=O)c1c(NC(C)=O)sc2c1CCC(C=O)=C2Sc1ccccc1 | 1.62 µM
CN(C)CCCN(C(=O)CCc1ccccc1)c1nc2ccc(Br)cc2s1 | 6.82 µM
Cc1ccc2c(CC(=O)N3CCN(S(=O)(=O)c4ccc5c(c4)OCCO5)CC3)coc2c1 | 2.38 µM and 1.6 µM
COCCN(CCOC)c1nc(N)c2c(N)nc3c(c2c1C#N)CC(=O)N3Cc1ccc(Cl)cc1 | > 39.8 µM (inactive)
CN(C)CCCN(C(=O)CCc1ccccc1)c1nc2ccc(Cl)cc2s1 | 5.99 µM
NC(=NCCCCCCN=C(N)/N=C(\N)Nc1ccc(Cl)cc1)/N=C(\N)Nc1ccc(Cl)cc1 | 2.14 µM and 2.18 µM
CC1CCN(S(=O)(=O)c2ccc(NC(=O)Cc3ccccc3)cc2)CC1 | 3.98 µM
CCN(CC)CCNC(=O)c1ccc(NC(=O)c2cn(-c3ccccc3)nc2-c2cccs2)cc1 | inactive
CC(=O)Cc1cc(O)c2ccccc2c1OC(=O)c1ccccc1 | 1.36 µM
CC(C)c1ccc(N2C=Nc3ccc(C(C)C)cc3C2)cc1 | 1.26 µM
CN1CCC(=C2c3ccccc3CC(=O)c3sccc32)CC1 | > 39.8 µM (inactive)
O=c1[nH]c(C2CCN(S(=O)(=O)c3ccc(S(=O)(=O)NC4CC4)cc3)CC2)nc2c1nnn2Cc1ccc(F)cc1 | 1.99 µM

Structure (SMILES) | IC50
CN(C)CCN(Cc1ccco1)c1ccccn1 | > 39.8 µM (inactive)
CC1Sc2ccc(S(=O)(=O)N3CCC(C(=O)NCc4ccc(Cl)cc4)CC3)cc2NC1=O (stereo unspecified) | 4.51 µM
O=C(/C(=C/O)N=Nc1ccc(Cl)cc1)c1ccncc1 | 5.2 µM
Cc1cc(C)c(NC(=O)CN2CCN3CCCC3C2)c(C)c1 (stereo unspecified) | inactive
CC(=O)Cc1cc(O)c2ccccc2c1OC(=O)c1ccc(Br)cc1 | 2.04 µM
FC(F)(F)c1cccc(NC(=S)N(CCCN2CCCC2)Cc2cccn2Cc2ccc(Cl)cc2)c1 | 8.99 µM
CCN(CC)CCOCCOC(=O)C1(c2ccccc2)CCCC1 | 0.925 µM
O=c1[nH]c(C2CCN(S(=O)(=O)c3ccc(F)cc3)CC2)nc2c1nnn2Cc1ccc2c(c1)OCCO2 | 8.94 µM
CC(CCc1ccco1)NC(=O)CCc1nnc2ccc(NCc3ccccc3Cl)nn12 (stereo unspecified) | 0.744 µM
COc1cc(C)c2sc3ccccc3c(=O)c2c1NCCN(C)C | > 39.8 µM (inactive)
CCCCNC(=O)Nc1ccc2c(c1)N(C)C(=O)c1ccccc1S2 | 1.46 µM
COc1ccc(C)c2sc(N(CCN(C)C)C(=O)/C=C/c3cccs3)nc12 | 7.16 µM
Cc1cc(C)c(NC(=O)C[N+](C)(C)CC(O)COc2cccc3ccccc23)c(C)c1 (stereo unspecified) | 4.48 µM
CCCCOC(=O)Nc1cc(C(=O)OC)ccc1C(=O)OC | 3.83 µM
Cc1cc(C)c2nc(NNC(=O)c3ccc(S(=O)(=O)N4CCCC(C)C4)cc3)sc2c1 (stereo unspecified) | 2.53 µM
CC1CCN(S(=O)(=O)c2ccc(NC(=O)Cc3cccs3)cc2)CC1 | 3.54 µM
Cc1nc2c(o1)CCc1ccccc1C2N1CCN(C)CC1 (stereo unspecified) | 4.16 µM
CC1=CC(C)(C)Nc2ccc(OC(=O)C(C)N3C(=O)c4ccccc4C3=O)cc21 (stereo unspecified) | 2.13 µM
CCCNC(=O)Nc1ccc2c(c1)N(C)C(=O)c1ccccc1S2 | 3.73 µM
O=C(C[n+]1cccc(CNC(=O)c2ccc(OC(F)F)cc2)c1)Nc1cccc(C(F)(F)F)c1 | inactive
COc1cc(OC)cc(C(=O)NC(=S)N(Cc2ccccc2)C(C)C)c1 | 1.46 µM
CN(C)CCOC1(Cc2ccc(F)cc2)CCC(C(C)(C)C)CC1 (stereo unspecified) | > 39.8 µM (inactive)
CCOc1cc(N)c(Cl)cc1C(=O)NCC1CN(Cc2ccc(F)cc2)CCO1 (stereo unspecified) | 1.2 µM
